# Marks after values point to notes of the source that are not given here.
# Key:
# [1] = test system: central benzodiazepine receptor; assay: Binding selectivity, ligand displacement; details: 10 μM
# Source text: (§1) The CEREP High-throughput profile consists of a broad collection of 80 transmembrane and soluble receptors, ion channels and G-Protein coupled receptors.
# [2] = target: T1, peripheral benzodiazepine receptor (Rattus norvegicus, UniProt P16257); assay: Binding selectivity, ligand displacement; details: 10 μM
# T1 construct: CEREP
# Source text: as §1
# progesterone receptor = target: T2, progesterone receptor (Homo sapiens, UniProt P06401); assay: Binding selectivity, ligand displacement; details: 10 μM
# T2 construct: CEREP
# Source text: as §1
# [3] = test system: diet-induced obese (DIO) mouse model; assay: Repeated treatment: food intake and body weight in diet-induced obese (DIO) mice; assay type: in vivo; details: for Inhibition of food-intake and body weight (repeated administration): Effect (Rimonabant): 10 mg/kg
# Procedure: Male C57BL/6J mice were fed ad libitum with a high-fat diet (HFD) for 8 weeks before the start of the pharmacological treatments. During pharmacological treatments, the HFD was maintained and food intake and body weight were measured daily. The food consumed was calculated by subtracting the food left in the hoppers from the initial pre-weighted amount. […] 3pMBP and rimonabant were administered by oral gavage once a day, two hours before the start of the dark phase of the light/dark cycle.
# THC dependent mice = assay: Precipitated withdrawal in mice chronically treated with THC; assay type: in vivo; details: mouse, in vivo
# Procedure: The chronic THC regimen (20 mg/kg, twice a day) used in these experiments has been chosen because it mimics heavy marijuana use (Cook et al., 1998) and is considered as a model of cannabinoids dependence in mice (Cutando et al., 2013; Hutcheson et al., 1998). […] From day 1 to 4-5, mice were injected ip with vehicle or THC (20 mg/kg in NaCl 0.9% containing 2% ethanol and 2% Tween80, 10 ml/kg) twice a day. […] All the other animals received the administration of the respective vehicle. […] The dose and schedule of administration of rimonabant chosen for this study has been commonly used to precipitate THC withdrawal in mice (Cook et al. 1998, Hutcheson et al., 1998, Huang et al., 2009).
# For the measure of precipitated withdrawal, mice were placed in a novel home cage and a video camera positioned in front of each cage recorded animals' behaviors. Scoring was performed for 1 minute every 5 min-period. Two withdrawal signs were analyzed: paw tremors and head shaking, since they are the most common signs of THC withdrawal observed in mice (Cook et al. 1998, Hutcheson et al., 1998, Lichtman et al., 2001).
# [4] = test system: anxiety- and depression-related behaviors in mice; assay: Repeated administration: anxiety- and depression-related behaviors (elevated plus maze, sucrose preference test); assay type: in vivo; details: for Increase in anxiety and depression related behaviors (repeated administration): Effect (Rimonabant): 28 days, 10 mg/kg
# Procedure: The EPM apparatus was made of four elevated arms arranged in a cross-like disposition, with two opposite arms being enclosed by walls and the two other arms being open. For all the experiments, after receiving the appropriate treatment mice were placed in the center of the EPM and let free to explore the maze for 5 minutes. The time spent and the number of entries into the open arms and closed arms were measured by an automatic videotracking system. A decrease in the percentages of visits and/or of the time spent in open arms is considered an index of increase in anxiety levels.
# The sucrose preference test was performed in the home cage of the mice. Two identical bottles, one containing water and the other one containing a 2%-sucrose solution were placed in the hopper of each home cage. […] The volumes of water and of sucrose solutions drank by the mice were measured over two 1.30 h intervals, the first between 7.00 pm and 8.30 pm and the second between 8.30 pm and 10.00 pm. At each time point, the bottles were weighed and the intake volume was calculated by subtracting the initial bottle weight to the final bottle weight.
# At day 26, mice were subjected to the EPM and at day 28 to the sucrose preference test.
# [5] = test system: diet-induced obese (DIO) mouse model; assay: Repeated treatment: food intake and body weight in diet-induced obese (DIO) mice; assay type: in vivo; details: vs vehicle; Rimo 10 mg/kg ip; 3pMBP 0.005-15 mg/kg per os
# corticosterone = details: from Steiner et al., 2008, cited from earlier work
# [6] = at doses quite close to the therapeutic dose; cited from earlier work
# [7] = Metabolic profiling of [3H]-3pMBP in plasma and excreta in the rat (Radio-HPLC); details: in vivo
# Procedure: The metabolic profile was evaluated in plasma, in urines and feces and the radio-labelled metabolites were identified by their retention time using Radio-HPLC analysis. The results are expressed as % of the sum of all the detected peak areas.
# [8] = male mice, listed as rimonabant
# [9] = vs reference ID100 for rimonabant effects = 10 mg/kg
# [10] = 28 days once a day, 3pMBP 0.05, 5, 15 mg/kg per os, Rimo 10 mg/kg ip
# T2 sequence (P06401 whole entry): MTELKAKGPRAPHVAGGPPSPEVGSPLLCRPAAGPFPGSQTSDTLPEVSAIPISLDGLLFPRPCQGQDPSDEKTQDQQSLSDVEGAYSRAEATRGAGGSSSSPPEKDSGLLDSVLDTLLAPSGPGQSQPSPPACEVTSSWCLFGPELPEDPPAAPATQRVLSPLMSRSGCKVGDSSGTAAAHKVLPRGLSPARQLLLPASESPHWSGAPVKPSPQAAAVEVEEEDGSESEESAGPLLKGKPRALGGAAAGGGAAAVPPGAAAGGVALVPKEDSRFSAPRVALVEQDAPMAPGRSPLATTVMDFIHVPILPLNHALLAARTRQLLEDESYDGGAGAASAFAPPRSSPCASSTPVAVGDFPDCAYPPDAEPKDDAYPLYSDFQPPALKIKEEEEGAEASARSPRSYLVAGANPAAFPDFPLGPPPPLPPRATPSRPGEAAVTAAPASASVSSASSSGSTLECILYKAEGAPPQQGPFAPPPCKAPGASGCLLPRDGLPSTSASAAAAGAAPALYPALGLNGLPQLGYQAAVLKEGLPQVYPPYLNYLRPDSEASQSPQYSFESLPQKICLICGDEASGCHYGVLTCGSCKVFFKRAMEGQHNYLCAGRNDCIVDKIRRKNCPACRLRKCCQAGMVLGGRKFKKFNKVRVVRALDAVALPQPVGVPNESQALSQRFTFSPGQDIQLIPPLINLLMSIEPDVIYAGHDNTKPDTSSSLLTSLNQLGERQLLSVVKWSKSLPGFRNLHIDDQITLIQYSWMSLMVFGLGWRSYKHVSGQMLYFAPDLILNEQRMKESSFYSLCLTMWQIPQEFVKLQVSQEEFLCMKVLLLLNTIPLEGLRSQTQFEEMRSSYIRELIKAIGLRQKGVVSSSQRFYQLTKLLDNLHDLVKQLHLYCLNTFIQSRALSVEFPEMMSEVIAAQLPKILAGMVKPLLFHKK
compound,measurement,setting,value
CC(=O)[C@H]1CC[C@H]2[C@@H]3CC=C4C[C@@H](O)CC[C@]4(C)[C@H]3CC[C@]12C [pregnenolone],displacement of binding,[1],> 40%
same,displacement of binding,[2],> 40%
same,displacement of binding,progesterone receptor,> 80%
"Cc1c(C(=O)NN2CCCCC2)nn(-c2ccc(Cl)cc2Cl)c1-c1ccc(Cl)cc1 [Rimonabant, rimonabant]",IC100,"[3]; Rimonabant, male mice",10 mg/kg
same,Inhibition of food-intake and body weight (repeated administration): Effect (Rimonabant),[3]; male mice,Yes
same,Inhibition of food-intake and body weight (repeated administration): Effect (Rimonabant),[3]; [8],decreased both food intake and body weight
same,N fold IC100,[3]; [9],1
same,Food intake in obese mice,"[3]; vs vehicle, Rimo 10 mg/kg ip, 3pMBP 0.005-15 mg/kg per os",decreases food intake
same,IC100,THC dependent mice,10 mg/kg
same,Percentage of time spent in the open arms of the elevated plus maze,[4]; [10],decreases the time spent in open arms
same,Percentage of visits in the open arms of the elevated plus maze,[4]; [10],decreases the percentage of visits in open arms
same,Sucrose intake (sucrose preference test),[4]; [10],decreases sucrose intake
same,IC100,"[4]; Rimonabant, male mice",10 mg/kg
same,Increase in anxiety and depression related behaviors (repeated administration): Effect (Rimonabant),[4]; male mice,Yes
same,Increase in anxiety and depression related behaviors (repeated administration): Effect (Rimonabant),[4]; [8],increased anxiety and depression-related behavior
same,N fold IC100,[4]; [9],1
same,Body weight in obese mice,[5],decreases body weight
same,IC100,corticosterone; Rimonabant,2 mg/kg
same,Increase in glucocorticoid secretion: Effect (Rimonabant),corticosterone; mice,Yes
same,N fold IC100,corticosterone; vs reference ID100 for rimonabant = 10 mg/kg,0.2^#
same,Adverse events in GLP safety and toxicity studies,[6],"clonic convulsion, hepatotoxicity and several profound alterations in behavior"
COc1ccc(CO[C@H]2CC[C@@]3(C)C(=CC[C@H]4[C@@H]5CC[C@H](C(C)=O)[C@@]5(C)CC[C@@H]43)C2)cc1 [[^3H]-3pMBP],Major metabolites in plasma,[7],does not produce any major metabolites in plasma

# — patent publication US12447159B2 (AELIS FARMA, priority 2018, dated 2025)
